One test addresses T1, cPLA2 (Homo sapiens, UniProt P47712).
T1 sequence (P47712 1-749): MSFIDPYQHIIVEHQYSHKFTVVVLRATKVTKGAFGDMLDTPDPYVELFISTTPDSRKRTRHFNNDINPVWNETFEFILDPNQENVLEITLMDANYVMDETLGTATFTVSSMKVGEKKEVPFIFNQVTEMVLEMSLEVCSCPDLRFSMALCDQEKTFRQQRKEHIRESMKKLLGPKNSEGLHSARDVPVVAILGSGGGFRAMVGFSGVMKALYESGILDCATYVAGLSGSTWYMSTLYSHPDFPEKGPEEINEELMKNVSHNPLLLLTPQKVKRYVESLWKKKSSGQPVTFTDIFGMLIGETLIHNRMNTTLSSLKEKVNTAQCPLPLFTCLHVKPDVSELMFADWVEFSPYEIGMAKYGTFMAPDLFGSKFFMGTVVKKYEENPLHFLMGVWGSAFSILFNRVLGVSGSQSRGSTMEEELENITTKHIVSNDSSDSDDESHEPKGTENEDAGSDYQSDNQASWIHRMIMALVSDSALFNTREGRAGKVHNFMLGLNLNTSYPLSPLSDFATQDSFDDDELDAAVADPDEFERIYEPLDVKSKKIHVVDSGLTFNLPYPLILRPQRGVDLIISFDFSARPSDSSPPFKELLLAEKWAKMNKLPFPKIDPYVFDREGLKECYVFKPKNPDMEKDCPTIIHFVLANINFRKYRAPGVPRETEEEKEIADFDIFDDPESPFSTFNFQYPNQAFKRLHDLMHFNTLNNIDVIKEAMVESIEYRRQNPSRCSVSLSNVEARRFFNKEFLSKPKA
Nature of the test: cPLA2 Inhibitory Activity. The class given is biochemical. Particulars: 1-palmitoyl-2-[14C]-arachidonoyl-sn-glycero-3-phosphocholine 2.5 μM, sn-1,2-dioleoylglycerol 1.25 μM; pH 7.5, 15 min at 37° C. The protocol:
Test Example 1 cPLA2 Inhibitory Activity The compounds of the present invention were tested for the cPLA2 inhibitory activity according to the method disclosed in […]. Roberts, […], and J. E. Putnam, J. Biol. Chem., 1991, 266, 5268-5272 as outlined below. […] The reaction mixture includes 50 mM HEPES buffer (pH 7.5), 1 mM calcium chloride, 150 mM sodium chloride, 0.1 mg/ml bovine serum albumin, and 1.7 mM dithiothreitol. To the reaction mixture was added the compound of the present invention and the substrate solution. The reaction was allowed to start by adding an enzyme and continued for 15 min at 37° C. The fatty acids released by the reaction were extracted by the method described in V. P. Dole, and H. Meinertz, J. Biol. Chem., 1960, 235, 2595-2599 and its radiation activity was measured on a liquid scintillation counter. Control was obtained by conducting the experiment in the same manner except that a compound of the present invention was not added.

In test [1] the test system is production of prostaglandin E2 by human fibroblasts. Nature of the test: Inhibition of Production of Prostaglandin E2 in Human Fibroblasts (IL-1 stimulation). The class given is cell-based. Particulars: Fibroblast; human fibroblasts under stimulation with IL-1. Here is the method:
Test Example 2 Inhibition of Production of Prostaglandin E2 in Human Fibroblasts.
In order to examine the availability of the composition for inhibiting cytosolic phospholipase A2 (cPLA2) on the cells, the compounds of the present invention were tested for the effect on the production of prostaglandin E2 by human fibroblasts under the stimulation with IL-1 according to the method of J. M. Dayer et al (CACHECTIN/TUMOR NECROSIS FACTOR STIMULATES COLLAGENASE AND PROSTAGLANDIN E2 PRODUCTION BY HUMAN SYNOVIAL CELLS AND DERMAL FIBROBLASTS; J. M. Dayer, B, Beutler and A, Cerami, J. EXP. Med., 1985, 162, 2163-2168.).

Consider `O=C1NC(=O)/C(=C/c2ccc(C(=O)NC[C@@H]3C[C@@H](OCc4ccccc4-c4ccccc4)CN3C(=O)c3ccccc3C(=O)c3cccs3)cc2)S1` [Compound A-19], for which the IC50 (in general, the point on the concentration scale where inhibition reaches its midpoint) at cPLA2 came to 1000 nM; in test [1] it was 160 nM.

With `O=C1NC(=S)S/C1=C\c1ccc(C(=O)NC[C@@H]2C[C@@H](OCc3ccccc3-c3ccccc3)CN2C(=O)c2ccccc2C(=O)c2ccc(F)cc2)cc1` [Compound A-20], the IC50 came out at 300 nM against cPLA2 and 350 nM in test [1].

Turning to `Cc1ccc(C(=O)c2ccccc2C(=O)N2C[C@H](OCc3ccccc3-c3ccccc3)C[C@H]2CNC(=O)c2ccc(/C=C3\SC(=O)NC3=O)cc2)cc1` [Compound A-21], the IC50 is 430 nM against cPLA2 and 230 nM in test [1].

For `O=C1NC(=O)/C(=C/c2ccc(C(=O)NC[C@@H]3C[C@@H](OCc4ccccc4-c4ccccc4)CN3C(=O)c3ccccc3C(=O)c3ccc(Cl)cc3)cc2)S1` [Compound A-22], the values for the IC50 (on cPLA2; in test [1]) were 300 nM and 180 nM, respectively.

For the compound `Nc1ccccc1C(=O)c1ccccc1C(=O)N1C[C@H](OCc2ccccc2-c2ccccc2)C[C@H]1CNC(=O)c1ccc(/C=C2\SC(=O)NC2=O)cc1` [Compound A-23], the results for the IC50 (against cPLA2; in test [1]) were 460 nM and 1200 nM, respectively.

Turning to `O=C1NC(=O)/C(=C/c2ccc(C(=O)NC[C@@H]3C[C@@H](OCc4ccccc4-c4ccccc4)CN3C(=O)c3ccccc3C(=O)c3ccc(F)cc3F)cc2)S1` [Compound A-25], the values for the IC50 (on cPLA2; in test [1]) were 48 nM and 800 nM, respectively.

Take `O=C1NC(=O)/C(=C/c2ccc(C(=O)NC[C@@H]3C[C@@H](OCc4ccccc4-c4ccccc4)CN3C(=O)c3cccc4c3C(=O)c3ccccc3-4)cc2)S1` [Compound A-26]: the IC50 is 1000 nM at cPLA2 and 170 nM in test [1].

As for `Cc1ccc(C(=O)c2ccccc2C(=O)N2C[C@H](OCc3ccccc3-c3ccccc3)C[C@H]2CNC(=O)c2ccc(/C=C3\SC(=S)NC3=O)cc2)cc1` [Compound A-27], the IC50 came to 430 nM against cPLA2 and 1200 nM in test [1].

Regarding `O=C1NC(=S)S/C1=C\c1ccc(C(=O)NC[C@@H]2C[C@@H](OCc3ccccc3-c3ccccc3)CN2C(=O)c2ccccc2C(=O)c2ccc(Cl)cc2)cc1` [Compound A-28], the IC50 is 280 nM on cPLA2 and 1400 nM in test [1].

Consider `O=C1NC(=O)/C(=C/c2ccc(C(=O)NC[C@@H]3C[C@@H](OC(c4ccccc4)c4ccccc4)CN3C(=O)c3ccccc3C(=O)c3ccc(F)cc3)cc2)S1` [Compound A-29], for which the IC50 on cPLA2 amounted to 86 nM; in test [1], 2200 nM.

Turning to `O=C1NC(=O)/C(=C/c2ccc(C(=O)NC[C@@H]3C[C@@H](OCc4ccccc4-c4ccc(F)cc4)CN3C(=O)c3ccccc3C(=O)c3ccc(F)cc3)cc2)S1` [Compound A-30], the IC50 was 98 nM against cPLA2 and 460 nM in test [1].

For `O=C1NC(=O)/C(=C/c2ccc(C(=O)NC[C@@H]3C[C@@H](OCc4ccccc4Cc4ccccc4)CN3C(=O)c3ccccc3C(=O)c3ccc(F)cc3)cc2)S1` [Compound A-32], the half-inhibitory concentration (IC50) at cPLA2 worked out at 67 nM; in test [1], 570 nM.

For the compound `O=C1NC(=O)/C(=C/c2ccc(C(=O)NC[C@@H]3C[C@@H](OCc4ccccc4Br)CN3C(=O)c3ccccc3C(=O)c3ccc(F)cc3)cc2)S1` [Compound A-33], the IC50 against cPLA2 is 59 nM; in test [1], 460 nM.

Consider `O=C1NC(=O)/C(=C/c2ccc(C(=O)NC[C@@H]3C[C@@H](OCc4ccccc4I)CN3C(=O)c3ccccc3C(=O)c3ccc(F)cc3)cc2)S1` [Compound A-34], for which the results for the IC50 (against cPLA2; in test [1]) were 71 nM and 480 nM, respectively.

As for `O=C1NC(=O)/C(=C/c2ccc(C(=O)NC[C@@H]3C[C@@H](OCc4ccccc4-c4cccc5ccccc45)CN3C(=O)c3ccccc3C(=O)c3ccc(F)cc3)cc2)S1` [Compound A-35], the IC50 at cPLA2 was determined as 40 nM; in test [1], 180 nM.

For the compound `O=C1NC(=O)/C(=C/c2ccc(C(=O)NC[C@@H]3C[C@@H](OCc4ccccc4-c4ccc5ccccc5c4)CN3C(=O)c3ccccc3C(=O)c3ccc(F)cc3)cc2)S1` [Compound A-36], the IC50 at cPLA2 was found to be 48 nM; in test [1], 180 nM.

As to `O=C1NC(=O)/C(=C/c2ccc(C(=O)NC[C@@H]3C[C@@H](OCc4ccccc4-c4cccs4)CN3C(=O)c3ccccc3C(=O)c3ccc(F)cc3)cc2)S1` [Compound A-37], the concentration for half-maximal inhibition (IC50) was determined as 73 nM on cPLA2 and 280 nM in test [1].

Regarding `O=C1NC(=O)/C(=C/c2ccc(C(=O)NC[C@@H]3C[C@@H](OCc4ccccc4-c4ccsc4)CN3C(=O)c3ccccc3C(=O)c3ccc(F)cc3)cc2)S1` [Compound A-38], the results for the 50% inhibitory concentration (IC50) (at cPLA2; in test [1]) were 84 nM and 430 nM, respectively.

On to `O=C1NC(=O)/C(=C/c2ccc(C(=O)NC[C@@H]3C[C@@H](OCc4ccc5ccccc5c4-c4ccccc4)CN3C(=O)c3ccccc3C(=O)c3ccc(F)cc3)cc2)S1` [Compound A-39], for which the concentration for half-maximal inhibition (IC50) against cPLA2 was determined as 25 nM; in test [1], 330 nM.

Consider `O=C1NC(=O)/C(=C/c2ccc(C(=O)NC[C@@H]3C[C@@H](OCc4ccccc4-c4cc5ccccc5o4)CN3C(=O)c3ccccc3C(=O)c3ccc(F)cc3)cc2)S1` [Compound A-40], for which the figures for the IC50 (against cPLA2; in test [1]) were 36 nM and 610 nM, respectively.

Consider `COc1ccccc1-c1ccccc1CO[C@@H]1C[C@@H](CNC(=O)c2ccc(/C=C3\SC(=O)NC3=O)cc2)N(C(=O)c2ccccc2C(=O)c2ccc(F)cc2)C1` [Compound A-41], for which the concentration for half-maximal inhibition (IC50) was 56 nM against cPLA2 and 1200 nM in test [1].

For `CN(Cc1ccccc1)c1ccccc1CO[C@@H]1C[C@@H](CNC(=O)c2ccc(/C=C3\SC(=O)NC3=O)cc2)N(C(=O)c2ccccc2C(=O)c2ccc(F)cc2)C1` [Compound A-43], the IC50 was 52 nM at cPLA2 and 560 nM in test [1].

With `O=C1NC(=O)/C(=C/c2ccc(C(=O)NC[C@@H]3C[C@@H](OCc4ccccc4-c4cccc(C(F)(F)F)c4)CN3C(=O)c3ccccc3C(=O)c3ccc(F)cc3)cc2)S1` [Compound A-44], the figures for the IC50 (against cPLA2; in test [1]) were 57 nM and 550 nM, respectively.

For `O=C1NC(=O)/C(=C/c2ccc(C(=O)NC[C@@H]3C[C@@H](OCc4ccccc4-c4cccc([N+](=O)[O-])c4)CN3C(=O)c3ccccc3C(=O)c3ccc(F)cc3)cc2)S1` [Compound A-45], the 50% inhibitory concentration (IC50) at cPLA2 stood at 74 nM; in test [1], 380 nM.

With `O=C1NC(=O)/C(=C/c2ccc(C(=O)NC[C@@H]3C[C@@H](OCc4ccccc4Oc4ccccc4)CN3C(=O)c3ccccc3C(=O)c3ccc(F)cc3)cc2)S1` [Compound A-48], the IC50 against cPLA2 is 90 nM; in test [1], 620 nM.

`O=C1NC(=O)C(=C/C=C/c2ccc(C(=O)NC[C@@H]3C[C@@H](OCc4ccccc4-c4ccccc4)CN3C(=O)c3ccccc3C(=O)c3ccc(F)cc3)cc2)S1` [Compound A-49]: the figures for the IC50 (against cPLA2; in test [1]) were 49 nM and 120 nM, respectively.

In the case of `O=C(/C=C/c1ccc(/C=C2\SC(=O)NC2=O)cc1)NC[C@@H]1C[C@@H](OCc2ccccc2-c2ccccc2)CN1C(=O)c1ccccc1C(=O)c1ccc(F)cc1` [Compound A-52], the values for the half-inhibitory concentration (IC50) (against cPLA2; in test [1]) were 53 nM and 620 nM, respectively.

Turning to `O=C1NC(=O)/C(=C/c2ccc(C(=O)NC[C@@H]3C[C@@H](OCc4ccccc4-c4ccccc4)CN3C(=O)c3ccccc3C(=O)c3ccc(F)cc3)s2)S1` [Compound A-58], the IC50 on cPLA2 came to 49 nM; in test [1], 1600 nM.

In the case of `O=C1NC(=S)S/C1=C\c1ccc(C(=O)NC[C@@H]2C[C@@H](OCc3ccccc3-c3ccccc3)CN2C(=O)c2ccccc2C(=O)c2ccc(F)cc2)s1` [Compound A-59], the IC50 on cPLA2 was 47 nM; in test [1], 940 nM.

Turning to `O=C1NC(=O)/C(=C/c2ccc(S(=O)(=O)NC[C@@H]3C[C@@H](OCc4ccccc4-c4ccccc4)CN3C(=O)c3ccccc3C(=O)c3ccc(F)cc3)s2)S1` [Compound A-60], the half-maximal inhibitory concentration (IC50) (at cPLA2; in test [1]) was 1300 nM in each case.

The record behind these values is patent US6147100A, “Pyrrolidine derivatives having phospholipase A2 inhibitory activity” (Shionogi & Co., Ltd., priority 1997, dated 2000).
